Patent publication US12064426B2, “Selective inhibitors of ROCK1 and ROCK2 protein kinases and uses thereof” (GENOSCO Inc., priority 2021, dated 2024)

Assays:
[1] = target: T1, Recombinant ROCK1 (amino acids 1-477) (Homo sapiens, UniProt Q13464); experiment: ROCK inhibition assay, LANCE Ultra TR-FRET kinase assay (ROCK1); type: biochemical; settings: 1 μM ATP, 50 nM ULight-CREBtide substrate
T1 construct: Recombinant ROCK1 (amino acids 1-477); by word order, ROCK1 from Carna Biosciences
Method: (§1) Kinase IC50 was determined through an in vitro assay based on LANCE Ultra TR-FRET (Time-Resolved Fluorescence Resonance Energy Transfer) homogeneous technologies method (Perkin Elmer). Recombinant ROCK1 (amino acids 1-477) and ROCK2 (amino acids 5-554) proteins were purchased from Carna Biosciences and SignalChem. Compound activities were measured by Envision and IC50s were calculated. The assays were performed in white LUMITRAC™ 200 96 well half-area microplates from Greiner Bio-One. The kinase reaction buffer consisted of 50 mM HEPES pH 7.5, 1 mM EGTA, 10 mM MgCl2, 2 mM DTT and 0.01% Tween-20. Kinases were incubated with 50 nM (ULight-CREBtide) substrate in the presence of 1 (ROCK1) or 4 (ROCK2) μM ATP. The kinase reaction was carried out for 1 hour before addition of a stopping buffer to a final of 10 mM EDTA and 0.6 nM of LANCE Ultra Europium anti-phospho-CREB (Ser133) antibody (PerkinElmer TRF0200) in LANCE detection buffer. All assay incubations were performed at room temperature, and the microplates were sealed with polyester film during that time. The reaction was incubated for 1 hour, and the signal was read in Envision in TR-FRET mode (excitation at 320 nm and emission at 615/665 nm).
(§2) As used herein, a way to describe potency of inhibitory activity (nM) is a value of inhibitory activity at 50% (IC50).

[2] = target: T2, Recombinant ROCK2 (amino acids 5-554) (Homo sapiens, UniProt O75116); experiment: ROCK inhibition assay, LANCE Ultra TR-FRET kinase assay (ROCK2); type: biochemical; settings: 4 μM ATP, 50 nM ULight-CREBtide substrate
T2 construct: ROCK2 (amino acids 5-554); by word order, ROCK2 from SignalChem
Method: as §1, §2

T2 sequence (O75116 5-554): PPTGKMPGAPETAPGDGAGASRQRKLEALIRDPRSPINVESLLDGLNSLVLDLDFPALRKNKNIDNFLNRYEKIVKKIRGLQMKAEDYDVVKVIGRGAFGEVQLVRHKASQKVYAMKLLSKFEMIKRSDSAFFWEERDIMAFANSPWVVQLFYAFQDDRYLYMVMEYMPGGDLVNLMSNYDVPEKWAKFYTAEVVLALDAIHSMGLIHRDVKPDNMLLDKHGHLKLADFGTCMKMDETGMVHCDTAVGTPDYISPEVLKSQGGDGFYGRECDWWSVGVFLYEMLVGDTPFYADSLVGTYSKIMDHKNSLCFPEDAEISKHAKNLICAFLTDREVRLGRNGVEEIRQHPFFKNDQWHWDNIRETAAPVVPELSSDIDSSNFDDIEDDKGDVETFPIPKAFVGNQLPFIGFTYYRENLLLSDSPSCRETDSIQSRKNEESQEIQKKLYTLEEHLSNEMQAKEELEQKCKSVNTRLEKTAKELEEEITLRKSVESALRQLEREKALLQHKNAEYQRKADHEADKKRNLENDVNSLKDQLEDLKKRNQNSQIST
T1 sequence (Q13464 1-477): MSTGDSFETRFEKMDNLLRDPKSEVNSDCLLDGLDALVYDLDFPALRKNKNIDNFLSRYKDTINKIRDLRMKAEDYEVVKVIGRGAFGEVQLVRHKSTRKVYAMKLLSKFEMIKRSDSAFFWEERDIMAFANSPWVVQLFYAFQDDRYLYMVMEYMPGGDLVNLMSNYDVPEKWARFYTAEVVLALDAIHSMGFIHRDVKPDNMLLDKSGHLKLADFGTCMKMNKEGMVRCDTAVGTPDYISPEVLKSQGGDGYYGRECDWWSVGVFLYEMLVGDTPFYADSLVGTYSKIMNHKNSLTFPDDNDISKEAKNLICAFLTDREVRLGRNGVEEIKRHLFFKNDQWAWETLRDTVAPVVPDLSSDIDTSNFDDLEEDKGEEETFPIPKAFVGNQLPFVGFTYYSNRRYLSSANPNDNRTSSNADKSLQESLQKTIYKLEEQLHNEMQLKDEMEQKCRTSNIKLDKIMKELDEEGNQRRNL

SMILES	IC50 [1]	IC50 [2]
Cn1nccc1-c1ccc2c(=O)n(Cc3cccc(C(=O)NCC(F)(F)F)c3)ccc2c1 [Compound 103]	101 to 500 nM	10 to 100 nM
Cn1nccc1-c1ccc2c(=O)n(Cc3cccc(C(=O)NC4CCOCC4)c3)ccc2c1 [Compound 104]	101 to 500 nM	10 to 100 nM
Cn1nccc1-c1ccc2c(=O)n(Cc3cccc(C(=O)NC4CCNCC4)c3)ccc2c1 [Compound 105]	< 10 nM	< 10 nM
CN1CCC(NC(=O)c2cccc(Cn3ccc4cc(-c5ccnn5C)ccc4c3=O)c2)CC1 [Compound 106]	< 10 nM	< 10 nM
Cn1nccc1-c1ccc2c(=O)n(Cc3cccc(C(=O)NC4CCN(C5COC5)CC4)c3)ccc2c1 [Compound 109]	101 to 500 nM	10 to 100 nM
Cn1nccc1-c1ccc2c(=O)n(Cc3cccc(C(=O)NC4COC4)c3)ccc2c1 [Compound 110]	101 to 500 nM	< 10 nM
Cn1nccc1-c1ccc2c(=O)n(Cc3cccc(C(=O)NCC4COC4)c3)ccc2c1 [Compound 111]	101 to 500 nM	< 10 nM
Cn1nccc1-c1ccc2c(=O)n(Cc3cccc(C(=O)NCC4CC(O)C4)c3)ccc2c1 (stereo not drawn) [Compound 112]	101 to 500 nM	10 to 100 nM
CN1CC(CNC(=O)c2cccc(Cn3ccc4cc(-c5ccnn5C)ccc4c3=O)c2)C1 [Compound 113]	11 to 100 nM	< 10 nM
Cn1nccc1-c1ccc2c(=O)n(Cc3cccc(C(=O)NCc4ccc(F)nc4)c3)ccc2c1 [Compound 114]	11 to 100 nM	< 10 nM
Cn1nccc1-c1ccc2c(=O)n(Cc3cccc(C(=O)N[C@H]4CC[C@H](O)CC4)c3)ccc2c1 [Compound 115]	101 to 500 nM	10 to 100 nM
Cn1nccc1-c1ccc2c(=O)n(Cc3cccc(C(=O)N[C@H]4CC[C@@H](O)CC4)c3)ccc2c1 [Compound 116]	101 to 500 nM	10 to 100 nM
Cn1nccc1-c1ccc2c(=O)n(Cc3cccc(C(=O)NCc4ccnc(F)c4)c3)ccc2c1 [Compound 117]	101 to 500 nM	10 to 100 nM
CC(C)N1CCC(NC(=O)c2cccc(Cn3ccc4cc(-c5ccnn5C)ccc4c3=O)c2)CC1 [Compound 118]	101 to 500 nM	10 to 100 nM
CN(C)CCNC(=O)c1cccc(Cn2ccc3cc(-c4ccnn4C)ccc3c2=O)c1 [Compound 119]	11 to 100 nM	< 10 nM
COCCNC(=O)c1cccc(Cn2ccc3cc(-c4ccnn4C)ccc3c2=O)c1 [Compound 120]	101 to 500 nM	100 to 500 nM

SMILES	IC50 [1]	IC50 [2]
CN1CCc2cc(NC(=O)c3cccc(Cn4ccc5cc(-c6ccnn6C)ccc5c4=O)c3)ccc2C1 [Compound 124]	< 10 nM	< 10 nM
Cn1nccc1-c1ccc2c(=O)n(Cc3cccc(C(=O)Nc4ccc5c(c4)CN(C4CC4)CC5)c3)ccc2c1 [Compound 126]	11 to 100 nM	< 10 nM
NS(=O)(=O)c1ccc(NC(=O)c2cc(F)cc(Cn3ccc4cc(-c5c[nH]nc5C(F)(F)F)ccc4c3=O)c2)cc1 [Compound 127]	101 to 500 nM	10 to 100 nM
Cn1ccc(NC(=O)c2cc(F)cc(Cn3ccc4cc(-c5cn[nH]c5C(F)(F)F)ccc4c3=O)c2)n1 [Compound 128]	11 to 100 nM	< 10 nM
O=C(NCc1ccc(F)nc1)c1cc(F)cc(Cn2ccc3cc(-c4c[nH]nc4C(F)(F)F)ccc3c2=O)c1 [Compound 129]	101 to 500 nM	< 10 nM
O=C(NC1CCOCC1)c1cc(F)cc(Cn2ccc3cc(-c4c[nH]nc4C(F)(F)F)ccc3c2=O)c1 [Compound 130]	11 to 100 nM	10 to 100 nM
O=C(NC1CCNCC1)c1cc(F)cc(Cn2ccc3cc(-c4c[nH]nc4C(F)(F)F)ccc3c2=O)c1 [Compound 131]	< 10 nM	< 10 nM
CN1CCC(NC(=O)c2cc(F)cc(Cn3ccc4cc(-c5c[nH]nc5C(F)(F)F)ccc4c3=O)c2)CC1 [Compound 132]	< 10 nM	< 10 nM
O=C(NC1CC1)c1cc(F)cc(Cn2ccc3cc(-c4c[nH]nc4C(F)(F)F)ccc3c2=O)c1 [Compound 133]	101 to 500 nM	10 to 100 nM
CN1CCC(CNC(=O)c2cc(F)cc(Cn3ccc4cc(-c5c[nH]nc5C(F)(F)F)ccc4c3=O)c2)CC1 [Compound 134]	11 to 100 nM	< 10 nM
O=C(NCC1CCOCC1)c1cc(F)cc(Cn2ccc3cc(-c4c[nH]nc4C(F)(F)F)ccc3c2=O)c1 [Compound 135]	101 to 500 nM	10 to 100 nM
O=C(NCC1COC1)c1cc(F)cc(Cn2ccc3cc(-c4c[nH]nc4C(F)(F)F)ccc3c2=O)c1 [Compound 136]	11 to 100 nM	< 10 nM
CO[C@H]1CC[C@H](NC(=O)c2cc(F)cc(Cn3ccc4cc(-c5conc5C)ccc4c3=O)c2)CC1 [Compound 141]	> 501 nM	100 to 500 nM
CO[C@H]1CC[C@@H](NC(=O)c2cc(F)cc(Cn3ccc4cc(-c5conc5C)ccc4c3=O)c2)CC1 [Compound 142]	> 501 nM	100 to 500 nM
Cc1nocc1-c1ccc2c(=O)n(Cc3cc(F)cc(C(=O)NCCN4CCN(C)CC4)c3)ccc2c1 [Compound 144]	11 to 100 nM	< 10 nM
Cc1nocc1-c1ccc2c(=O)n(Cc3cc(F)cc(C(=O)NCC4CCN(C)CC4)c3)ccc2c1 [Compound 149]	11 to 100 nM	< 10 nM

More lines, now with the values ahead:

IC50 [1]	IC50 [2]	SMILES
11 to 100 nM	< 10 nM	Cc1nocc1-c1ccc2c(=O)n(Cc3cccc(C(=O)Nc4ccc5c(c4)COCC5)c3)ccc2c1 [Compound 92]
< 10 nM	< 10 nM	Cc1nocc1-c1ccc2c(=O)n(Cc3cccc(C(=O)Nc4nc5c(s4)CCNC5)c3)ccc2c1 [Compound 93]
< 10 nM	< 10 nM	Cc1nocc1-c1ccc2c(=O)n(Cc3cccc(C(=O)Nc4nc5c(s4)CCN(C)C5)c3)ccc2c1 [Compound 94]
11 to 100 nM	< 10 nM	Cc1nocc1-c1ccc2c(=O)n(Cc3cccc(C(=O)Nc4nc5c(s4)CCN(C(C)C)C5)c3)ccc2c1 [Compound 95]
< 10 nM	< 10 nM	Cc1nocc1-c1ccc2c(=O)n(Cc3cccc(C(=O)Nc4ccc5c(c4)CCNC5)c3)ccc2c1 [Compound 96]
< 10 nM	< 10 nM	Cc1nocc1-c1ccc2c(=O)n(Cc3cccc(C(=O)Nc4ccc5c(c4)CCN(C)C5)c3)ccc2c1 [Compound 97]
< 10 nM	< 10 nM	Cc1nocc1-c1ccc2c(=O)n(Cc3cccc(C(=O)Nc4ccc5c(c4)CCN(C(C)C)C5)c3)ccc2c1 [Compound 98]
< 10 nM	< 10 nM	Cc1nocc1-c1ccc2c(=O)n(Cc3cccc(C(=O)Nc4ccc5c(c4)CCN(C4CC4)C5)c3)ccc2c1 [Compound 99]
< 10 nM	< 10 nM	Cc1nocc1-c1ccc2c(=O)n(Cc3cccc(C(=O)Nc4ccc5c(c4)CNCC5)c3)ccc2c1 [Compound 100]
< 10 nM	< 10 nM	Cc1nocc1-c1ccc2c(=O)n(Cc3cccc(C(=O)Nc4ccc5c(c4)CN(C)CC5)c3)ccc2c1 [Compound 101]
> 501 nM	10 to 100 nM	Cc1nocc1-c1ccc2c(=O)n(Cc3cccc(C(=O)NCCO)c3)ccc2c1 [Compound 102]
11 to 100 nM	< 10 nM	CN1CCc2sc(NC(=O)c3cccc(Cn4ccc5cc(-c6ccnn6C)ccc5c4=O)c3)nc2C1 [Compound 121]
< 10 nM	< 10 nM	Cn1nccc1-c1ccc2c(=O)n(Cc3cccc(C(=O)Nc4nc5c(s4)CCNC5)c3)ccc2c1 [Compound 122]
< 10 nM	< 10 nM	Cn1nccc1-c1ccc2c(=O)n(Cc3cccc(C(=O)Nc4ccc5c(c4)CNCC5)c3)ccc2c1 [Compound 125]
101 to 500 nM	10 to 100 nM	Cc1nocc1-c1ccc2c(=O)n(Cc3cc(F)cc(C(=O)N[C@H]4C[C@@H](O)C4)c3)ccc2c1 [Compound 137]
101 to 500 nM	10 to 100 nM	Cc1nocc1-c1ccc2c(=O)n(Cc3cc(F)cc(C(=O)N[C@H]4C[C@H](O)C4)c3)ccc2c1 [Compound 138]
101 to 500 nM	100 to 500 nM	Cc1nocc1-c1ccc2c(=O)n(Cc3cc(F)cc(C(=O)N[C@H]4CC[C@H](O)CC4)c3)ccc2c1 [Compound 139]
101 to 500 nM	100 to 500 nM	Cc1nocc1-c1ccc2c(=O)n(Cc3cc(F)cc(C(=O)N[C@H]4CC[C@@H](O)CC4)c3)ccc2c1 [Compound 140]
101 to 500 nM	10 to 100 nM	Cc1nocc1-c1ccc2c(=O)n(Cc3cc(F)cc(C(=O)NCCN4CCOCC4)c3)ccc2c1 [Compound 143]
101 to 500 nM	10 to 100 nM	Cc1nocc1-c1ccc2c(=O)n(Cc3cc(F)cc(C(=O)NCC4COC4)c3)ccc2c1 [Compound 145]
11 to 100 nM	< 10 nM	Cc1nocc1-c1ccc2c(=O)n(Cc3cc(F)cc(C(=O)NCc4ccc(F)nc4)c3)ccc2c1 [Compound 147]
101 to 500 nM	10 to 100 nM	Cc1nocc1-c1ccc2c(=O)n(Cc3cc(F)cc(C(=O)NC4CCOCC4)c3)ccc2c1 [Compound 148]
